Where two headings read alike, the source gives them in different places.
Experiments:
A549 lung cancer cell = assay: MTT anti-proliferative assay, A549; format: cell-based, human; conditions: MTT, 48 h
In short: (§1)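 Human cell lines were obtained from ATCC and cultured in DMEM with FBS. Cells were plated in 96-well plates, exposed to compounds and assessed by MTT read-out. Activity was expressed as inhibition of net cell growth.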

AGS gastric cancer cell = assay: MTT anti-proliferative assay, AGS; format: cell-based, human; conditions: for IC50: MTT, 48 h
In short: as §1

[1] = tested on: BEL-7402 liver cancer cell; assay: MTT anti-proliferative assay, BEL-7402; format: cell-based, human; conditions: for IC50: MTT, 48 h
In short: as §1

[2] = tested on: HCT116 colectal cancer cell; assay: MTT anti-proliferative assay, HCT116; format: cell-based, human; conditions: for IC50: MTT, 48 h
In short: as §1

[3] = tested on: HeLa cervical cancer cell; assay: MTT anti-proliferative assay, HeLa; format: cell-based, human; conditions: MTT, 48 h
In short: as §1

HepG2 hepatoma cell = assay: MTT anti-proliferative assay, HepG2; format: cell-based, human; conditions: MTT, 48 h, read-out: IC50 HepG-2
In short: as §1

L-02 normal liver cell = assay: MTT assay, L-02 normal cells; format: cell-based, human; conditions: 48 h
In short: as §1

[4] = tested on: MGC-803 late stage differentiation gastric cancer cell; assay: MTT anti-proliferative assay, MGC-803; format: cell-based, human; conditions: for IC50: MTT, 48 h
In short: as §1

MCF-7 breast cancer cell = assay: MTT anti-proliferative assay, MCF-7; format: cell-based, human; conditions: MTT, 48 h
In short: as §1

[5] = tested on: MCF-10A normal breast cell; assay: MTT assay, MCF-10A normal cells; format: cell-based, human; conditions: 48 h
In short: as §1

[6] = tested on: Raji B lymphoblastoid cell; assay: MTT anti-proliferative assay, Raji; format: cell-based, human
In short: as §1

[7] = tested on: SGC-7901 early differentiation gastric cancer cell; assay: MTT anti-proliferative assay, SGC-7901; format: cell-based, human; conditions: for IC50: MTT, 48 h
In short: as §1

[8] = tested on: diffuse large B-cell lymphoma SU-DHL-10 cell; assay: MTT anti-proliferative assay, SU-DHL-10; format: cell-based, human
In short: as §1

[9] = MTT, 48 h, read-out: IC50 SU-DHL-10
[10] = Homo sapiens, Raji, MTT, 48 h, read-out: IC50 Raji
[11] = Homo sapiens, SU-DHL10, MTT, 48 h, read-out: IC50 SU-DHL-10

| Compound | IC50 (A549 lung cancer cell) [µM] | IC50 (AGS gastric cancer cell) [µM] | IC50 [1] [µM] | IC50 ([2]; read-out: IC50 HCT-116) [µM] | IC50 [3] [µM] | IC50 (HepG2 hepatoma cell) [µM] | IC50 (L-02 normal liver cell) [µM] | IC50 [4] [µM] | IC50 (MCF-7 breast cancer cell) [µM] | IC50 [5] [µM] | IC50 ([6]; MTT, 48 h, read-out: IC50 Raji) [nM] | IC50 [7] [µM] | IC50 [8, 9] [nM] | IC50 (A549 lung cancer cell; Homo sapiens, A549) [µM] | IC50 (AGS gastric cancer cell; Homo sapiens) [µM] | IC50 ([1]; Homo sapiens, Bel-7402) [µM] | IC50 ([2]; Homo sapiens, HCT-116) [µM] | IC50 ([3]; Homo sapiens, HeLa) [µM] | IC50 (HepG2 hepatoma cell; Homo sapiens, HepG2) [µM] | IC50 (L-02 normal liver cell; Homo sapiens) [µM] | also measured |
| --- | --- | --- | --- | --- | --- | --- | --- | --- | --- | --- | --- | --- | --- | --- | --- | --- | --- | --- | --- | --- | --- |
| N#C/C(=C\c1cccs1)c1ccc(C(F)(F)F)cc1 [Compound 1f3b] | > 100 | 65 ± 17.9 | > 100 | > 100 | > 100 | > 100 | > 100 | > 100 | > 100 | > 100 | > 100000 | > 100 | > 100000 |  |  |  |  |  |  |  | SI (selectivity index), IC50 (L-02)/IC50 (AGS) (AGS gastric cancer cell): > 1.5 |
| N#C/C(=C\c1ccccn1)c1ccc(C(F)(F)F)cc1 [Compound 1f3c] | > 100 | > 100 | > 100 | 87.6 ± 9.1 | > 100 | > 100 | > 100 | > 100 | > 100 | > 100 | > 100000 | > 100 | > 100000 |  |  |  |  |  |  |  | SI (selectivity index), IC50 (L-02)/IC50 (HCT-116) [2]: > 1.1 |
| N#C/C(=C\c1cccc2ccccc12)c1ccc(C(F)(F)F)cc1 [Compound 1f3d] | > 100 | > 100 | > 100 | > 100 | > 100 | > 100 | > 100 | > 100 | > 100 | > 100 | > 100000 | > 100 | > 100000 |  |  |  |  |  |  |  |  |
| CCN(CC)c1ccc(/C=C(\C#N)c2cc(OC)c(OC)c(OC)c2)cc1 [Compound 1g2b] | > 100 | 7.5 ± 0.4 | 0.03 ± 0.01 | 1 ± 0.1 | > 100 | > 100 | > 100 | 0.12 ± 0.03 | 0.45 ± 0.06 | 0.05 ± 0.001 | 370 ± 60 | > 100 | 2400 ± 100 |  |  |  |  |  |  |  | SI (selectivity index), IC50 (L-02)/IC50 (AGS) (AGS gastric cancer cell): > 13.1; SI (selectivity index), IC50 (L-02)/IC50 (BEL-7402) [1]: > 3333; SI (selectivity index), IC50 (L-02)/IC50 (HCT-116) [2]: > 96.1; SI (selectivity index), IC50 (L-02)/IC50 (MGC-803) [4]: > 819; SI (selectivity index), IC50 (L-02)/IC50 (Raji) [6]: > 270; SI (selectivity index), IC50 (L-02)/IC50 (SU-DHL-10) [8]: > 34.0 |
| N#C/C(=C\c1cn(-c2ccccc2)nn1)c1ccc(OC(F)(F)F)cc1 [Compound 7a] |  |  |  |  |  |  |  |  |  |  |  |  |  | > 100 | > 100 | > 100 | > 100 | > 100 | > 100 | > 100 | IC50 ([4]; Homo sapiens, MGC-803): > 100 µM; IC50 (MCF-7 breast cancer cell; Homo sapiens, MCF7): > 100 µM; IC50 ([5]; Homo sapiens, MCF-10A): > 100 µM; IC50 [6, 10]: > 100000 nM; IC50 ([7]; Homo sapiens, SGC-7901): > 100 µM; IC50 [8, 11]: > 100000 nM |
| COc1cccc(-n2cc(/C=C(\C#N)c3ccc(OC(F)(F)F)cc3)nn2)c1 [Compound 7b] |  |  |  |  |  |  |  |  |  |  |  |  |  | > 100 | > 100 | > 100 | > 100 | > 100 | > 100 | > 100 | IC50 ([4]; Homo sapiens, MGC-803): > 100 µM; IC50 (MCF-7 breast cancer cell; Homo sapiens, MCF7): > 100 µM; IC50 ([5]; Homo sapiens, MCF-10A): > 100 µM; IC50 [6, 10]: > 100000 nM; IC50 ([7]; Homo sapiens, SGC-7901): > 100 µM; IC50 [8, 11]: > 100000 nM |
| COc1cc(-n2cc(/C=C(\C#N)c3ccc(OC(F)(F)F)cc3)nn2)cc(OC)c1OC [Compound 7c] |  |  |  |  |  |  |  |  |  |  |  |  |  | > 100 | > 100 | > 100 | > 100 | > 100 | > 100 | > 100 | IC50 ([4]; Homo sapiens, MGC-803): > 100 µM; IC50 (MCF-7 breast cancer cell; Homo sapiens, MCF7): > 100 µM; IC50 ([5]; Homo sapiens, MCF-10A): > 100 µM; IC50 [6, 10]: > 100000 nM; IC50 ([7]; Homo sapiens, SGC-7901): > 100 µM; IC50 [8, 11]: > 100000 nM; melting point: 170 to 172 °C |
| COc1ccc(C(=O)/C=C/c2ccc(/C=C(\C#N)c3ccc(OC(F)(F)F)cc3)cc2)cc1 [Compound 8a] |  |  |  |  |  |  |  |  |  |  |  |  |  | > 100 | > 100 | 13.2 ± 2.7 | 56.3 ± 8.4 | > 100 | > 100 | > 100 | IC50 ([4]; Homo sapiens, MGC-803): > 100 µM; IC50 (MCF-7 breast cancer cell; Homo sapiens, MCF7): 17.6 ± 6.5 µM; IC50 ([5]; Homo sapiens, MCF-10A): 11.3 ± 2.3 µM; IC50 [6, 10]: 1200 ± 500 nM; IC50 ([6]; Homo sapiens, Raji, read-out: IC50 Raji cells): ~1000 nM; IC50 ([7]; Homo sapiens, SGC-7901): > 100 µM; IC50 [8, 11]: 1300 ± 100 nM; IC50 ([8]; Homo sapiens, SU-DHL10, read-out: IC50 SU-DHL-10 cells): ~1000 nM; melting point: 148 to 150 °C |
| N#C/C(=C\c1ccc(/C=C/C(=O)c2ccc(F)cc2)cc1)c1ccc(OC(F)(F)F)cc1 [Compound 8c] | > 100 | 25.3 ± 7.5 | 77.4 ± 3 | 22.9 ± 6.2 | > 100 | > 100 | > 100 | 87.5 ± 0.6 | 67.7 ± 5.4 | 15.8 ± 2.5 | 1000 ± 200 | 22.2 ± 8.6 | 1000 ± 200 |  |  |  |  |  |  |  | SI (selectivity index), IC50 (L-02)/IC50 (AGS) (AGS gastric cancer cell): > 3.9; SI (selectivity index), IC50 (L-02)/IC50 (BEL-7402) [1]: > 1.2; SI (selectivity index), IC50 (L-02)/IC50 (HCT-116) [2]: > 4.3; SI (selectivity index), IC50 (L-02)/IC50 (MGC-803) [4]: > 1.1; SI (selectivity index), IC50 (L-02)/IC50 (Raji) [6]: > 99.0; IC50 ([6]; read-out: IC50 Raji cells): ~1000 nM; SI (selectivity index), IC50 (L-02)/IC50 (SGC-7901) [7]: > 4.5; SI (selectivity index), IC50 (L-02)/IC50 (SU-DHL-10) [8]: > 96.1; IC50 ([8]; read-out: IC50 SU-DHL-10 cells): ~1000 nM |

From publication PMC11071649, “Synthesis and Selective Anticancer Activity Evaluation of 2-phenylacrylonitrile Derivatives as Tubulin Inhibitors” (Current Medicinal Chemistry, 2024)
